In patent publication US20230220339A1, “T CELL, PREPARATION METHOD FOR SAME, AND APPLICATIONS THEREOF” (BENETHERA (BEIJING) BIOTECHNOLOGY CO., LTD., priority 2020, published 2023):

Legend:
Assay type in all cases: cell-based, mouse
m-calpain = assay: Calpain activity by digestion of the calpain substrate CMAC (flow cytometry); conditions: for calpain activity (digestion rate of CMAC) after Ryr activation: 4-CMC treatment, FIG. 7
Procedure: Wherein calpain activity measurement procedure: To measure calpain activity, 10^5 T cells were incubated in 200 µL of medium containing 20 µM calpain substrate CMAC (t-BOC-Leu-Met, Thermo Fisher) in the dark at room temperature. After 5 min of incubation, the reaction was terminated with 1 % PFA (Biosharp) and the cells were immediately placed on ice. The fluorescent signal emitted from the digested substrate was measured as calpain activity by Fortessa flow cytometer through the Hoechst blue channel. In all experiments, the inhibitor JTV519 was added 30 min prior to the experiments, and activator 4-CmC and CMAC were added at the same time.

DC2.4 cells = assay: AFM single cell force spectrum, T-DC adhesion (two-cell system); conditions: Ryr2 blocked in Tconv; intensities even stronger than that of Treg, FIG. 14
Procedure: The atomic force microscope-based single cell force spectrum procedures were performed using JPK CellHesion device as described above (see “Alum interaction with dendritic cell membrane lipids is essential for its adjuvanticity” (Flach et al., Nat Med 17, 479-487, 2011) and “Strong adhesion by regulatory T cells induces dendritic cell cytoskeletal polarization and contact-dependent lethargy” (Chen et al., The Journal of experimental medicine, 2017)). Briefly, to measure T-DC adhesion in a two-cell system, DC2.4 cells were cultured on untreated glass plates. T cells were treated with 200 U/mL human IL-2 overnight. The glass plates were moved into an AFM compatible chamber and mounted on a machine table. Clean cantilevers were coated with CellTak (BD), and then stick an individual T cell on thefront end of the cantilever. The AFM cantilever carrying the individual T cell was lowered to allow T cell contact with a single DC and to interact for 15 s, and then moved upward until the two cells were completely separated. A force spectrum curve was obtained. The process was then repeated. […] Treg/Tconv contact-mediated inhibition of OT-II-DC adhesion was analyzed. […] For each SCFS experiment, a T-DC pair was used to generate force readings for each up-down cycle during a period of several minutes. […]

3T3 and A20 cells = assay: 4-CmC-induced Ca^2+ signal in cells with or without FoxP3 overexpression; conditions: FoxP3-transfected 3T3 and A20 cells vs non-FoxP3 overexpression group, HBSS without calcium ions, FIG. 24
Procedure: For non-adherent cells, Treg, Tconv and A20 cells were stained with […] fluo-4 AM (Thermo Fisher) for 1 h at 37° C. After washing, the cells were adhered to poly-L-lysine coated (0.1 mg/mL; Sigma-Aldrich) round glass slides mounted in the sandwich home-made chamber at room temperature. After 15 min, excess non-adherent cells were removed by washing with buffer. For adherent cells, NIH-3T3 and Renca cells grown on glass slides were stained with […] fluo-4 AM (Thermo Fisher) for 1 hour at 37° C. The measurement chamber was then placed on an Olympus IX-73 microscope equipped with a 20-fold (numerical aperture: 0.8) or 40-fold (numerical aperture: 1.2) Olympus objective. Unless otherwise stated, Ca^2+ oscillation within 20 min was recorded at intervals of 6 s. […] For the stimulation experiments, Ca^2+ oscillation within 5 min was recorded at intervals of 1 s. […] The emission signal at 468 nm to 550 nm excited by the 488 nm laser was recorded with a charge coupled device camera (ORCA-AG, Hamamatsu). […] The mean fluorescence intensity changes over time in individual cells were analyzed using ImageJ and normalized with fluorescence intensity in the first frame (Fluo-4 F / F0). The peak of Ca^2+ oscillation of the individual cells was shown, and the standard deviation of Ca^2+ fluctuation intensity was calculated as Mean ± SEM. […]

Structure (SMILES) | digestion of m-calpain substrate after JTV519 treatment (m-calpain; Tconv, inhibitor added 30 min prior, FIG. 13) | contact of treated Tconv with dendritic cells (adhesion) (DC2.4 cells) | calpain activity (digestion rate of CMAC) after Ryr activation (m-calpain; Tconv cells) | calpain activity (digestion rate of CMAC) after Ryr activation (m-calpain; Treg cells) | Ca^2+ signal driven by 4-CmC (3T3 and A20 cells)
COc1ccc2c(c1)CN(C(=O)CCN1CCC(Cc3ccccc3)CC1)CCS2 [JTV519] | digestion of low m-calpain substrate | induced strong contact with dendritic cells |  |  | 
Cc1cc(O)ccc1Cl [4-CmC] |  |  | completely able to induce calpain activity | not sensitive | drives much less Ca^2+ signal
